Results on 9 molecules are retold here after ChEMBL document CHEMBL1152549, “Synthesis and molecular modeling of some novel hexahydroindazole derivatives as potent monoamine oxidase inhibitors” (Bioorg Med Chem, 2009).

In assay [1] the target is T1, Amine oxidase [flavin-containing] A (Rattus norvegicus, UniProt P21396).
T1 sequence (P21396 whole entry): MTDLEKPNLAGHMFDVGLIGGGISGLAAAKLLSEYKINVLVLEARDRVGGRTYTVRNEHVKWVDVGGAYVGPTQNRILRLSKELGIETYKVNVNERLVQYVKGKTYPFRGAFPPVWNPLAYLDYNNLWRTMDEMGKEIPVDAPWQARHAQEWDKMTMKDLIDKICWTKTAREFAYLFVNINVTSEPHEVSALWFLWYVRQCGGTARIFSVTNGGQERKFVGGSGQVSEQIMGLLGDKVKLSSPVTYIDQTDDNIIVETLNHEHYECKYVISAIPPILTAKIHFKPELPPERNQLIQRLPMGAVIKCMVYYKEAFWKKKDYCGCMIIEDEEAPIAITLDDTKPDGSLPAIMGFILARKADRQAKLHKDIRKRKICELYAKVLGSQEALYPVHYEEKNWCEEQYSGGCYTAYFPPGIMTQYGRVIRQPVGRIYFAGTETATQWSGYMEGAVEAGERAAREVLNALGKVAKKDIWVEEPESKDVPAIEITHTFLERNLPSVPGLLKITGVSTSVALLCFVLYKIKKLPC
The assay can be described thus: Competitive inhibition of MAOA in rat liver homogenate by spectrophotometrically. It is filed as tissue-based.

Assay [2] concerns the target T2, Amine oxidase [flavin-containing] B (Rattus norvegicus, UniProt P19643).
T2 sequence (P19643 whole entry): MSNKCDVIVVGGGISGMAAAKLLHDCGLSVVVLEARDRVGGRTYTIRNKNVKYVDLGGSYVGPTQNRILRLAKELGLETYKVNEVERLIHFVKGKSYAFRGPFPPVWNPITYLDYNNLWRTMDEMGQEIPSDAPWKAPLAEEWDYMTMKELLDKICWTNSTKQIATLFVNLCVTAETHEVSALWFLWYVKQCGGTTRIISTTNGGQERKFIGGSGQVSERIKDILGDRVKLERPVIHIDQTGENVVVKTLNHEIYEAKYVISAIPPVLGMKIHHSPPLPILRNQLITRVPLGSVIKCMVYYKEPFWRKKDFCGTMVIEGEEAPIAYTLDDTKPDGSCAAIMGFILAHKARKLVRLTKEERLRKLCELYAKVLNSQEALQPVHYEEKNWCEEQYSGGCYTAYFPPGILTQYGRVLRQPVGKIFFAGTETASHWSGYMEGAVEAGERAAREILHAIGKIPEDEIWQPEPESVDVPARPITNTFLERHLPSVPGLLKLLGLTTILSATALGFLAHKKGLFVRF
The assay can be described thus: Competitive inhibition of MAOB in rat liver homogenate by spectrophotometrically. The assay is classed as tissue-based.

For assay [3], the species on record is Rattus norvegicus. The assay can be described thus: Selectivity index, ratio of Ki for rat MAOA to Ki for rat MAOB.

Consider `S=C(Nc1ccccc1)N1NC2=C(CCCC2)C1c1ccco1` (configuration not stated), for which, in assay [1], the IC50 – broadly, the concentration that inhibits the measured activity by half – was 0.78 µM; the Ki (as a rule, the dissociation constant of the complex between target and ligand, obtained from inhibition or displacement) was determined as 0.00422 µM. In assay [2], this molecule had an IC50 of 80.4 µM and an inhibitory constant (Ki) of 1.23 µM. In assay [3], the Ratio Ki is 0.0034.

In assay [1], `NC(=S)N1NC2=C(CCCC2)C1c1ccco1` (configuration not stated) displayed an IC50 of 80.2 µM and a Ki of 3.9 µM. Further, in assay [2], the 50% inhibitory concentration (IC50) is 1.37 µM and affinity was put at a Ki of 0.00096 µM. Further, the Ratio Ki in assay [3] is 4060.

For `CCNC(=S)N1NC2=C(CCCC2)C1c1cccs1` (configuration not stated), in assay [1], the IC50 is 3.01 µM and the Ki stood at 1.72 µM. In assay [2], this molecule had an IC50 of 90.1 µM and a Ki of 3.01 µM. In addition, the Ratio Ki in assay [3] was found to be 0.57.

In assay [1], `S=C(Nc1ccccc1)N1NC2=C(CCCC2)C1c1cccs1` (configuration not stated) showed an IC50 of 0.7 µM and an inhibition constant Ki of 0.0391 µM. For the same molecule, in assay [2], the IC50 was 75.1 µM and the Ki worked out at 92.3 µM. In assay [3], the Ratio Ki is 0.004.

In the case of `CCNC(=S)N1NC2=C(CCCC2)C1c1ccco1` (configuration not stated), the IC50 in assay [1] stood at 110 µM; in assay [2], 2.77 µM. Also, the Ki is 4.26 µM in assay [1] and 1.95 µM in assay [2]. The Ratio Ki in assay [3] was found to be 2.19.

In assay [1], `NC(=S)N1NC2=C(CCCC2)C1c1cccs1` (configuration not stated) yielded an IC50 of 95.2 µM and a Ki of 2.99 µM. Moreover, in assay [2], the IC50 came out at 1.26 µM and the Ki stood at 0.0009 µM. In addition, the Ratio Ki in assay [3] worked out at 3320.

For `CNC(=S)N1NC2=C(CCCC2)C1c1ccco1` (configuration not stated), in assay [1], the 50% inhibitory concentration (IC50) is 108 µM and affinity was put at a Ki of 8.82 µM. In assay [2], this molecule showed an IC50 of 2.99 µM and a Ki of 2.1 µM. Moreover, the Ratio Ki in assay [3] was found to be 4.2.

In the case of `O=C(NCCN1CCOCC1)c1ccc(Cl)cc1` [MOCLOBEMIDE], in assay [2], the concentration for half-maximal inhibition (IC50) was determined as 89.5 µM and affinity was put at a Ki of 1.08 µM.

Turning to `CNC(=S)N1NC2=C(CCCC2)C1c1cccs1` (configuration not stated), the results for the IC50 in assay [1] and in assay [2] were 62.3 µM and 2.61 µM, respectively. The Ki was found to be 5.01 µM in assay [1] and 1.69 µM in assay [2]. Further, the Ratio Ki in assay [3] is 2.96.
